In article PMC7959842, “Deregulation of Factor H by Factor H-Related Protein 1 Depends on Sialylation of Host Surfaces” (Frontiers in Immunology, 2021) one finds Kd and affinity data, which are given here for 2 molecules.

Common to all, as to type: binding
Assay [1] addresses T1, FH18-20 (Homo sapiens, UniProt P08603).
T1 construct: gene CFH; C-terminal fragment CCP18-20, monomeric, recombinant from Pichia pastoris
T1 sequence (P08603 1046-1231 limits assumed): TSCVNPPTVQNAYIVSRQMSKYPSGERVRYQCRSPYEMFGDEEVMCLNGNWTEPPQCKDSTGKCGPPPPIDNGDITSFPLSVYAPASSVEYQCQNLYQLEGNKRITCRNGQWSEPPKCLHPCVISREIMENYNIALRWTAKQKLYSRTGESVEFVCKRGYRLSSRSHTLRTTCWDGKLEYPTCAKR
The assay can be described thus: SPR, immobilised glycan, concentration series. The conditions noted are these: labelled compound (biotin-coupled on streptavidin chip); PBS, 0.005% Tween20, 25 °C; rough estimate, saturation not reached; read-out: affinity.

In a further assay the target is T2, FH19-20 (Homo sapiens, UniProt P08603).
T2 construct: gene CFH; C-terminal fragment CCP19-20, recombinant from Pichia pastoris
T2 sequence (P08603 1107-1231 limits assumed): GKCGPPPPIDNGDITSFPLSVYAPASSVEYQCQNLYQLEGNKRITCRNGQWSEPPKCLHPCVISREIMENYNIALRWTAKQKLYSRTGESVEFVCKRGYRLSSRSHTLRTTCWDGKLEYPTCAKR
The assay can be described thus: SPR, immobilised glycan, concentration series. The conditions noted are these: labelled compound (biotin-coupled on streptavidin chip); PBS, 0.005% Tween20, 25 °C; rough estimate, saturation not reached; read-out: affinity.

Assay [2] deals with T1, FH18-20. Nature of the assay: intrinsic tryptophan fluorescence (nanoDSF), titration; also STD NMR. The following applies: 50 mM HEPES pH 7.4, 150 mM NaCl, 3 mM EDTA; 20 and 37 °C; in solution. (In DSF a fluorescence change marks the thermal transition of the protein.)

Consider “biotinylated 3´-sialyl-N-acetyllactosaminide”, for which the Kd on FH18-20 [1] and at FH19-20 was more than 100 µM each time. Turning to `CC(=O)N[C@H]1[C@H]([C@H](O)[C@H](O)CO)O[C@@](O[C@H]2[C@@H](O)[C@@H](CO)O[C@@H](O[C@H]3[C@H](O)[C@@H](O)C(O)O[C@@H]3CO)[C@@H]2O)(C(=O)O)C[C@@H]1O` (stereo partly drawn) [3’-sialyllactose], on FH18-20 [2], the affinity result was “monovalent interactions in solution were generally weaker; with estimated affinities in the millimolar range”.
